From patent US20080254136A1, “Antiprotozoal Agent” (JAPAN HEALTH SCIENCES FOUNDATION, priority 2004, published 2008)
In brackets after ≈: the same amount, converted by molar mass. Like-named read-outs stand apart in the source and are kept apart here.

System: leishmania
Test: antileishmanial activity measurement (leishmania culture, Tetracolor ONE, OD 450-630 nm)
Format: cell-based
Conditions: leishmania culture 2×10^5/ml, 27° C., 5% CO2, 48 hours, then Tetracolor ONE 6 hours, mean of 3 wells
Description: A hexane extract from Lithospermi Radix (obtained by the method used for Reference example 1), a hexane extract from a mixture of Lithospermi Radix and Angelicae Radix (obtained by the method used for Reference example 2), shikonin (Nagara Science), acetylshikonin (Nagara Science), β,β-dimethylacrylshikonin (Nagara Science), isobutyrylshikonin (Nagara Science), α-methyl-n-butyrylshikonin (Nagara Science), isovalerylshikonin (Nagara Science), β-hydroxyisovalerylshikonin (Nagara Science), and alkanine (Wako Pure Chemical Industries, Ltd.) were subjected to antileishmanial activity measurement.
First, 1 to 5 mg of each sample was dissolved in dimethylsulfoxide (DMSO) such that DMSO solutions (10 mg/ml) were prepared. Then, the solutions were diluted with Medium 199 (800 μg/ml) and allowed to pass through a membrane filter. The resulting test solutions were adjusted to 9 different concentrations. The test solutions (50 μl) at different concentrations and a leishmania culture solution (50 μl) that had been adjusted to a final concentration of 2×10^5/ml were introduced into wells of a microtiter plate such that the total volume of each culture solution was 100 μl in each well. After incubation at 27° C. in the presence of 5% CO2 for 48 hours, 10 μl of a Tetracolor ONE reagent was added thereto, followed by incubation for 6 hours. Thereafter, the OD value (450-630 nm) was measured using a microplate reader. Each sample at each concentration (3 wells) was subjected to measurement such that the mean value was obtained. Then, a graph was created such that the IC50 value was obtained.

Row | SMILES | IC50 [µg/mL] | IC50 (read-out: IC50) [µg/mL]
1 | CC(=O)O[C@H](CC=C(C)C)C1=CC(=O)c2c(O)ccc(O)c2C1=O [Acetylshikonin, acetylshikonin] | 0.026 (≈ 0.0787 µM) | –
2 | CC(C)=CC[C@H](O)C1=CC(=O)c2c(O)ccc(O)c2C1=O [Alkanine, alkanine] | – | 0.028 (≈ 0.0971 µM)
3 | CC(C)=CC[C@@H](OC(=O)C(C)C)C1=CC(=O)c2c(O)ccc(O)c2C1=O [Isobutyrylshikonin, isobutyrylshikonin] | 0.017 (≈ 0.0474 µM) | –
4 | CC(C)=CCC(OC(=O)CC(C)C)C1=CC(=O)c2c(O)ccc(O)c2C1=O (centres unmarked) [Isovalerylshikonin, isovalerylshikonin] | 0.02 (≈ 0.0537 µM) | –
5 | CC(C)=CC[C@@H](O)C1=CC(=O)c2c(O)ccc(O)c2C1=O [Shikonin, shikonin] | 0.09 (≈ 0.312 µM) | –
6 | CCC(C)C(=O)OC(CC=C(C)C)C1=CC(=O)c2c(O)ccc(O)c2C1=O (stereo not drawn) [α-methyl-n-butyrylshikonin] | 0.014 (≈ 0.0376 µM) | –
7 | CC(C)=CCC(OC(=O)C=C(C)C)C1=CC(=O)c2c(O)ccc(O)c2C1=O (stereo not drawn) [β,β-dimethylacrylshikonin] | 0.014 (≈ 0.0378 µM) | –
8 | CC(C)=CC[C@@H](OC(=O)CC(C)(C)O)C1=CC(=O)c2c(O)ccc(O)c2C1=O [β-hydroxyisovalerylshikonin] | 0.19 (≈ 0.489 µM) | –
